{"source": "patent US9067894B1", "about": "“Compound, composition, and method of activating GIRK potassium channel and use of same for treating conditions of interest” (Vanderbilt University, priority 2013, dated 2015)", "key": {"GABAB1A": {"target": "T1, GABAB1A (Homo sapiens, UniProt Q9UBS5)", "T1 construct": "Ricerca", "T1 sequence (Q9UBS5 15-961 limits assumed)": "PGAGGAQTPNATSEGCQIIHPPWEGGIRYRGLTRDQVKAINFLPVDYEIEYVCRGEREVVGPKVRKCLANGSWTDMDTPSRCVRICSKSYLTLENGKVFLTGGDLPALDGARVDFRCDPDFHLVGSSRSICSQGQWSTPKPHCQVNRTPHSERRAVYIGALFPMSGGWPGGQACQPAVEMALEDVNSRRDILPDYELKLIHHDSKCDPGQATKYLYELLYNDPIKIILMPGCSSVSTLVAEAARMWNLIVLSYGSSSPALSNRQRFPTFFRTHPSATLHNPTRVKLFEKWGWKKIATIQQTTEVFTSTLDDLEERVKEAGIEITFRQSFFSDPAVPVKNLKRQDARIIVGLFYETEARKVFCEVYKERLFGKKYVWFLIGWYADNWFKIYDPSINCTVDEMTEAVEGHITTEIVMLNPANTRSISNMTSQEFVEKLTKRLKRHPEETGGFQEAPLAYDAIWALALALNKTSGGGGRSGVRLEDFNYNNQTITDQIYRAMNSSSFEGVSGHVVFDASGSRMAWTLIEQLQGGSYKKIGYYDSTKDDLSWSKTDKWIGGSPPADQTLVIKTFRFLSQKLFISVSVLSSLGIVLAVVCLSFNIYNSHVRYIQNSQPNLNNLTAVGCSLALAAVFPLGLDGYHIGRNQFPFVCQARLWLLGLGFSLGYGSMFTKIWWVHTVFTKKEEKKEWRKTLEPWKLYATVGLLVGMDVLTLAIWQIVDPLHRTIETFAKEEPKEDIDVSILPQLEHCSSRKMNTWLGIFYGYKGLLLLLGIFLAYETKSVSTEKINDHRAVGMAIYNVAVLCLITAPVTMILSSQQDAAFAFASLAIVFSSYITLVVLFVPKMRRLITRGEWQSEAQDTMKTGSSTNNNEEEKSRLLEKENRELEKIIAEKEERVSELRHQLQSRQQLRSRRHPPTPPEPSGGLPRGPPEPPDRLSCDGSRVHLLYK", "experiment": "Radioligand displacement (Ricerca)", "format": "binding"}, "Rolipram (PDE4)": {"tested_on": "Rolipram (PDE4)", "experiment": "Radioligand displacement (Ricerca)", "format": "binding, human", "conditions": "10 μM"}, "GIRK1/3": {"target": "T2, GIRK1/3 (Homo sapiens, UniProt P48549+Q92806)", "T2 construct": "expressed in transfected cells; host or cells: HEK-293", "T2 sequence (P48549 whole entry)": "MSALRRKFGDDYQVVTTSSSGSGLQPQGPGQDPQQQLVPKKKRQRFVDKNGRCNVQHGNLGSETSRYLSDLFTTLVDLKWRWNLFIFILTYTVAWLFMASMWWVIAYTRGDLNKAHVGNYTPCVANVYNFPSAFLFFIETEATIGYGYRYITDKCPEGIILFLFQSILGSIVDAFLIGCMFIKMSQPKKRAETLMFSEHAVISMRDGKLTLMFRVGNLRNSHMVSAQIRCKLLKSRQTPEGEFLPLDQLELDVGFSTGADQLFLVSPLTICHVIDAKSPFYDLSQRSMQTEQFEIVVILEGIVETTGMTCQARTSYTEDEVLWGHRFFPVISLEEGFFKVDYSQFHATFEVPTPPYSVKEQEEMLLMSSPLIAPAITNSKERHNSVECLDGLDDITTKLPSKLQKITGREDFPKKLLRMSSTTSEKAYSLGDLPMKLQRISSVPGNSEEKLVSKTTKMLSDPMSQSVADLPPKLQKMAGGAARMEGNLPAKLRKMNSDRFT", "T2 sequence (Q92806 whole entry)": "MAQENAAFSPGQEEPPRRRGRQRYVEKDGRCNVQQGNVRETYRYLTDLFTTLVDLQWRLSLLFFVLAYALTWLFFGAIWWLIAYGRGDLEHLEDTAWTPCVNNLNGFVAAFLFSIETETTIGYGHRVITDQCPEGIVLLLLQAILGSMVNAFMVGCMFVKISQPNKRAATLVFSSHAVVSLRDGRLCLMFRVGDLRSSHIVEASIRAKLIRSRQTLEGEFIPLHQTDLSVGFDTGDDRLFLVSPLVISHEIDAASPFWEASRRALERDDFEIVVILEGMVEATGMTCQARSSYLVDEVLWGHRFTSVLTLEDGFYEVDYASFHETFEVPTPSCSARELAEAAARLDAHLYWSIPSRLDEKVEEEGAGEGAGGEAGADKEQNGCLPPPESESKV", "experiment": "Thallium flux assay, HEK-293 cells expressing GIRK1/3", "format": "cell-based", "conditions": "cell line GIRK1-3; average ± SEM", "excerpt": "Cell Line Construction and Cell Culture. HEK-293 cells co-expressing human GIRK1/2 and rat mGlu8 were generated as previously described (Niswender et al., 2008). A HEK-293 cell line (ATCC, Manassas, Va.) expressing human GIRK1 and human GIRK2 was constructed by transfecting HEK-293 cells with GIRK1 and GIRK2 (Origene, Rockville, Md.) cloned into the pBudCE4.1 vector (Life Technologies, Carlsbad, Calif.) using FuGene 6 (Promega, Madison, Wis.) transfection reagent. Unless otherwise noted, other ion channel-expressing cells were prepared by transfecting HEK-293 cells with individual or combinations of subunits: GIRK1, pCMV6-A-BSD; GIRK2, pCMV6-A-puro; GIRK3, pCMV6-A-hygro; GIRK4, pCMV6-A-AC; Kv7.4, pIRESneo3. The Kir2.1 and hERG-expressing cell lines were made by transfecting T-REx-293 cells (Life Technologies, Carlsbad, Calif.) with Kir2.1 and Kv11.1, respectively, cloned into pcDNA5TO. Monoclonal cell lines were produced by limiting-dilution cloning of antibiotic-resistant cells and functional selection using the thallium flux assay described below. Unless otherwise noted, cells were maintained in Minimal Essential Medium, Alpha Medium (Mediatech, Manassas, Va.) supplemented with 10% fetal bovine serum (Sigma-Aldrich, Saint Louis, Mo.) and GlutaGro (Mediatech, Manassas, Va.), referred to henceforth as cell culture medium. […]"}, "Leukotriene": {"target": "T3, Leukotriene (Homo sapiens, UniProt Q9Y271)", "T3 construct": "Ricerca (contract laboratory that ran the panel)", "T3 sequence (Q9Y271 whole entry)": "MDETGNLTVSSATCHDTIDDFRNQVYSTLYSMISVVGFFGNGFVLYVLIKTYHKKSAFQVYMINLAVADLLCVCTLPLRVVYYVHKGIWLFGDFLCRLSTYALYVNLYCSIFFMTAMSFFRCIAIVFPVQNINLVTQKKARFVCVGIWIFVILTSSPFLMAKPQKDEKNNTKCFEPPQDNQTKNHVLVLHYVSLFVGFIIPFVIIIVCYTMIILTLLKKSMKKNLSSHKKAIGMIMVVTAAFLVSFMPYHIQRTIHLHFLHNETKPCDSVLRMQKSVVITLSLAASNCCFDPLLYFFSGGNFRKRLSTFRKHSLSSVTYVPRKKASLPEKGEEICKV", "experiment": "Radioligand displacement (Ricerca)", "format": "binding"}, "Histamine H1": {"target": "T4, Histamine H1 (Homo sapiens, UniProt P35367)", "T4 construct": "Ricerca", "T4 sequence (P35367 whole entry)": "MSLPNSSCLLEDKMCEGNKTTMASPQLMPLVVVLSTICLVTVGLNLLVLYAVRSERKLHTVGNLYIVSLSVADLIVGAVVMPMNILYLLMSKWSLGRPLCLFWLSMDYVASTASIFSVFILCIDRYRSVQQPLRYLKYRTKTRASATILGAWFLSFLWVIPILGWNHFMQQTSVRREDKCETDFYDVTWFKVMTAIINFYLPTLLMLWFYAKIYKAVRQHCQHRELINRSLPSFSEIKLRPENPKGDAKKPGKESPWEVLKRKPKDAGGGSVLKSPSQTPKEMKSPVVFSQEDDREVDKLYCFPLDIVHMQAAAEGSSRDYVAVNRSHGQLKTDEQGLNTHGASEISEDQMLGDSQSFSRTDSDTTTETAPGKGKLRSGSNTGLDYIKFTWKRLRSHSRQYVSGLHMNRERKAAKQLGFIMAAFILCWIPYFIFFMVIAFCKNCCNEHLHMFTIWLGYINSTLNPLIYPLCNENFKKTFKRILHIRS", "experiment": "Radioligand displacement (Ricerca)", "format": "binding"}, "hERG (Kv11.1)": {"target": "T5, hERG (Kv11.1) (Homo sapiens, UniProt Q12809)", "T5 construct": "expressed in transfected cells; host or cells: T-REx-293", "T5 sequence (Q12809 whole entry)": "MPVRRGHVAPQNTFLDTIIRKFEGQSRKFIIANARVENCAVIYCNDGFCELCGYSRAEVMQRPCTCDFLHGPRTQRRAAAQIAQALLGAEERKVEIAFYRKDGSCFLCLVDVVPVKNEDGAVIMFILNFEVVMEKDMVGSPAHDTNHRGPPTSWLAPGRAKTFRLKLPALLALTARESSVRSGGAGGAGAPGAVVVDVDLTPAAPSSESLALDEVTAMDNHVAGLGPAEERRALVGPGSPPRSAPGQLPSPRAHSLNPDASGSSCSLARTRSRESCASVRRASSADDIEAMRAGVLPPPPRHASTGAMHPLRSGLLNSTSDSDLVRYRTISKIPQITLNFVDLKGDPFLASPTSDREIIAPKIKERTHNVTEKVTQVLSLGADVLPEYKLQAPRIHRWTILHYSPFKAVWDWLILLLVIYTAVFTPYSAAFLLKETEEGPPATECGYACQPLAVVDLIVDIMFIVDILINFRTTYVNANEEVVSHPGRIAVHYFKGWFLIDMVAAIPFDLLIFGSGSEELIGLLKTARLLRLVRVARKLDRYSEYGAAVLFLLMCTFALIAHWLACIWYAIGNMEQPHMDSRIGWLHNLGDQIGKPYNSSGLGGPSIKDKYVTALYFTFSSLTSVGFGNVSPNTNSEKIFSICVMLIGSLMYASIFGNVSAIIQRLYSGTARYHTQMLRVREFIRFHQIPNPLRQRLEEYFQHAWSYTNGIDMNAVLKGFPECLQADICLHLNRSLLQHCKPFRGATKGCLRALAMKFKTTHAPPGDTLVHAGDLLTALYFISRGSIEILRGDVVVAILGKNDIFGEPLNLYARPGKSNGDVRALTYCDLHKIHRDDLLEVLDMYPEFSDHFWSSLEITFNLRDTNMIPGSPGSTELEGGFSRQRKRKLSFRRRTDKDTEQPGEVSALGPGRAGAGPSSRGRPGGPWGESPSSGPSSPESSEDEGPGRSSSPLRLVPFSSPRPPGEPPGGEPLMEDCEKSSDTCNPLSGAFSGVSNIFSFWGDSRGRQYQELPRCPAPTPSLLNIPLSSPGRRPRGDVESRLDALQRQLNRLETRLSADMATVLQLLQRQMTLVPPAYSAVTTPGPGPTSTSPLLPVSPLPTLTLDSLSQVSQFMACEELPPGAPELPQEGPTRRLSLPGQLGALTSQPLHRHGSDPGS", "experiment": "Thallium flux assay, hERG-expressing cells", "format": "cell-based", "conditions": "human, T-REx-293 cells expressing hERG (Kv11.1), pH 7.3, at 100 μM; 100% inhibition defined by maximally effective dofetilide; read-out: maximum inhibition of hERG", "excerpt": "(§1) Cell Line Construction and Cell Culture. HEK-293 cells co-expressing human GIRK1/2 and rat mGlu8 were generated as previously described (Niswender et al., 2008). A HEK-293 cell line (ATCC, Manassas, Va.) expressing human GIRK1 and human GIRK2 was constructed by transfecting HEK-293 cells with GIRK1 and GIRK2 (Origene, Rockville, Md.) cloned into the pBudCE4.1 vector (Life Technologies, Carlsbad, Calif.) using FuGene 6 (Promega, Madison, Wis.) transfection reagent. Unless otherwise noted, other ion channel-expressing cells were prepared by transfecting HEK-293 cells with individual or combinations of subunits: GIRK1, pCMV6-A-BSD; GIRK2, pCMV6-A-puro; GIRK3, pCMV6-A-hygro; GIRK4, pCMV6-A-AC; Kv7.4, pIRESneo3. The Kir2.1 and hERG-expressing cell lines were made by transfecting T-REx-293 cells (Life Technologies, Carlsbad, Calif.) with Kir2.1 and Kv11.1, respectively, cloned into pcDNA5TO. Monoclonal cell lines were produced by limiting-dilution cloning of antibiotic-resistant cells and functional selection using the thallium flux assay described below. Unless otherwise noted, cells were maintained in Minimal Essential Medium, Alpha Medium (Mediatech, Manassas, Va.) supplemented with 10% fetal bovine serum (Sigma-Aldrich, Saint Louis, Mo.) and GlutaGro (Mediatech, Manassas, Va.), referred to henceforth as cell culture medium. Cell culture medium was further supplemented with selection antibiotics, as appropriate.\n(§2) For thallium flux assays, cells were dislodged from tissue culture flasks using TrypLE Express (Life Technologies, Carlsbad, Calif.), transferred to a 50 mL centrifuge tube, and spun at 500×g for 2 min. The supernatant solution was removed by aspiration and the pellet was resuspended at concentration of ˜1000 cells/μL. Twenty μL/well of the cell suspension was transferred to 384-well, amine-coated assay plates (cat#354719, BD, Franklin Lakes, N.J.) using an electronic multichannel pipette. Plated cells were incubated overnight in a humidified 5% CO2 cell culture incubator at 37° C. […]"}, "hERG potassium channel": {"target": "T6, hERG potassium channel (Homo sapiens, UniProt Q12809)", "T6 construct": "expressed in transfected cells; host or cells: T-REx-293", "T6 sequence (Q12809 whole entry)": "as above", "experiment": "Thallium flux assay, hERG-expressing cells", "format": "cell-based", "conditions": "hERG inhibition, thallium flux", "excerpt": "as §1, §2"}, "Transporter, SERT": {"target": "T7, Transporter, SERT (Homo sapiens, UniProt P31645)", "T7 construct": "Ricerca (contract panel)", "experiment": "Radioligand displacement (Ricerca)", "format": "binding"}, "Endothelin ETB": {"target": "T8, Endothelin ETB (Homo sapiens, UniProt P24530)", "T8 construct": "Ricerca", "experiment": "Radioligand displacement (Ricerca)", "format": "binding"}, "Adenosine A1": {"target": "T9, Adenosine A1 (Homo sapiens, UniProt P30542)", "T9 construct": "Ricerca (contract assay)", "experiment": "Radioligand displacement (Ricerca)", "format": "binding"}, "Transporter, DAT": {"target": "T10, Transporter, DAT (Homo sapiens, UniProt Q01959)", "T10 construct": "Ricerca (contract panel)", "experiment": "Radioligand displacement (Ricerca)", "format": "binding"}, "Tachykinin NK1": {"target": "T11, Tachykinin NK1 (Homo sapiens, UniProt P25103)", "T11 construct": "Ricerca (contract panel)", "experiment": "Radioligand displacement (Ricerca)", "format": "binding"}, "Phorbol ester": {"tested_on": "Phorbol ester", "experiment": "Radioligand displacement (Ricerca)", "format": "binding, mouse", "conditions": "10 μM"}}, "note": "Where two headings read alike, the source gives them in different places.", "data": [{"smiles": "Cc1cc(NC(=O)Nc2ccc(F)c(F)c2)n(-c2ccccc2)n1", "note": "[VU0456810, 1-(3,4-difluorophenyl)-3-(3-methyl-1-phenyl-1H-pyrazol-5-yl)urea]", "values": [{"measurement": "inhibition at 10 µM", "setting": "GABAB1A", "value": 11, "unit": "%"}, {"measurement": "% Inhibition", "setting": "Rolipram (PDE4)", "value": 11, "unit": "%"}, {"measurement": "EC50", "setting": "GIRK1/3", "value": "914 ± 264", "unit": "nM"}, {"measurement": "EC50 Thallium Flux", "setting": "GIRK1/3", "value": "able to activate"}, {"measurement": "inhibition at 10 µM", "setting": "Leukotriene", "value": 4, "unit": "%"}, {"measurement": "inhibition at 10 µM", "setting": "Histamine H1", "value": -7, "unit": "%"}, {"measurement": "inhibition at 20 min, 100 µM", "setting": "hERG (Kv11.1)", "value": "~60", "unit": "%"}, {"measurement": "IC50", "setting": "hERG potassium channel; read-out: IC50", "value": "~10", "unit": "µM"}, {"measurement": "IC50", "setting": "hERG potassium channel; average ± SEM, read-out: Potency", "value": "10.1 ± 7", "unit": "µM"}, {"measurement": "inhibition at 10 µM", "setting": "Transporter, SERT", "value": -1, "unit": "%"}, {"measurement": "inhibition at 10 µM", "setting": "Endothelin ETB", "value": 3, "unit": "%"}, {"measurement": "inhibition at 10 µM", "setting": "Adenosine A1", "value": 6, "unit": "%"}, {"measurement": "inhibition at 10 µM", "setting": "Transporter, DAT", "value": 12, "unit": "%"}, {"measurement": "inhibition at 10 µM", "setting": "Tachykinin NK1", "value": 3, "unit": "%"}, {"measurement": "% Inhibition", "setting": "Phorbol ester", "value": 1, "unit": "%"}]}]}
